Assay results published in paper PMC6522912, “Evaluation of the published kinase inhibitor set to identify multiple inhibitors of bacterial ATP-dependent mur ligases” (Journal of Enzyme Inhibition and Medicinal Chemistry, 2019).

target: E. coli MurF (Escherichia coli, UniProt P11880); assay: biochemical; details: 0.25 h, Table S1, PKIS screening; read-out: RA [%] at 100 µM MurF
Experimental: (§1) Inhibition of the Mur ligases was determined using the malachite green assay, with slight modifications.
(§2) In all cases, the final concentration of DMSO was 5% (v/v). After incubation for 15 min at 37 °C, the enzyme reaction was terminated by addition of 100 µM Biomol green reagent, and the absorbance was measured at 650 nm after 5 min. All of the experiments were run in duplicate. Residual activities were calculated with respect to control assays without the tested compounds, but with the 5% DMSO carrier.
(§3) The published kinase inhibitor set compounds were evaluated for inhibition of MurC, D and F ligases from E. coli using the Malachite green assay, which detects orthophosphate generated during enzymatic reactions. To avoid non-specific inhibition due to aggregate formation, all of the compounds were tested in the presence of detergent (0.005% Triton-X114). The data are presented as the residual activities of these Mur ligases in the presence of 100 µM of each test compound (Supporting Information Table S1). […] Additionally, regarding the data of profiled compounds in large panels of human kinase assays[41]

E. coli MurF, sequence (P11880 whole entry): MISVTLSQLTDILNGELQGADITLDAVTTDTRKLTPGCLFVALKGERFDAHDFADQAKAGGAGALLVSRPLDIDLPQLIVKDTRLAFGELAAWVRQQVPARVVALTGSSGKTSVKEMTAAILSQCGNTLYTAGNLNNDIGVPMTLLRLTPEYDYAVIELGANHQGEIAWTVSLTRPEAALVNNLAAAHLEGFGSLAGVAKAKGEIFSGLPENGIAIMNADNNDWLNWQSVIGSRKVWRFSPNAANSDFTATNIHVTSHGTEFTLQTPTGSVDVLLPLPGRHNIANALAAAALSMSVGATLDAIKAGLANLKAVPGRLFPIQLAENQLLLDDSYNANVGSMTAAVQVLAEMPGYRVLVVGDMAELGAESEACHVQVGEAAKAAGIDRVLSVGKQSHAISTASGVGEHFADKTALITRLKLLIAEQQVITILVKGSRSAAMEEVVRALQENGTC

Row | Structure (SMILES) | remaining activity at 100 µM [%]
1 | COc1cc(N2CCN(C(C)C)CC2)ccc1Nc1nc(Nc2cccc(F)c2C(=O)O)c2cc[nH]c2n1 [GSK1819799A] | 39
2 | CS(=O)(=O)Nc1cccc(-c2ccc3c(NC(=O)C4CC4)n[nH]c3c2)c1 [SB-742864] | 99
3 | Nc1ncc(-c2cccc(S(N)(=O)=O)c2)c2scc(-c3ccc(F)c(Cl)c3)c12 [GW856804X] | 71
4 | CC(C)c1ccc(Nc2nccc(-c3cnn4ncccc34)n2)cc1 [GW805758X] | 68
5 | Nc1nccc(C#Cc2cncnc2Nc2ccc(OCc3cccc(F)c3)c(Cl)c2)n1 [GW799251X] | 0
6 | COc1cc(N2CCN(C(C)C)CC2)ccc1Nc1nc(Nc2ccc(F)cc2C(N)=O)c2cc[nH]c2n1 [GSK1220512A] | 54
7 | CS(=O)(=O)CCNCc1cc(-c2cc3c(Nc4ccc(OCc5cccc(F)c5)c(Cl)c4)ncnc3s2)cs1 [GSK300014A] | 95
8 | N#Cc1ccc2c(-c3ccnc(NC4CC4)n3)c(-c3ccc(F)cc3)nn2c1 [GW561436X] | 77
9 | C[C@@H](Oc1cc(-n2cnc3ccc(OC4CCN(C)CC4)cc32)sc1C(N)=O)c1ccccc1Cl [GSK579289A] | 66
10 | Cc1cc(O)cc(C)c1/C=C/c1cncc(-c2nn[nH]n2)c1 [GW441806A] | 90
11 | CCN(CC)Cc1ccc(Nc2nccc(-c3cnn4ncccc34)n2)cc1 [GW780056X] | 88
12 | COc1ccc2ncn(-c3cc(O[C@H](C)c4ccccc4C(F)(F)F)c(C(N)=O)s3)c2c1 [GSK317315A] | 51
13 | NC(=O)c1ccc2c(-c3ccnc(NCCCO)n3)c(-c3ccc(F)cc3)nn2c1 [GW581744X] | 79
14 | CCS(=O)(=O)c1ccc(OC)c(Nc2ncc(-c3cccc(-c4ccccc4F)c3)o2)c1 [GW678313X] | 82
15 | COc1cc2ncn(-c3cc(OCc4ccccc4C(F)(F)F)c(C(N)=O)s3)c2cc1OC [GW843682X] | 83
16 | COc1cc2c(cc1Nc1nc(Nc3cccc(F)c3C(N)=O)c3cc[nH]c3n1)N(C(=O)CN1CCN(C(C)C)CC1)CC2 [GSK1751853A] | 89
17 | CC(C)c1ccc(-c2cc(-c3c[nH]nc3-c3ccccn3)ccn2)cc1 [GW682841X] | 88
18 | CNC(=O)c1ncccc1Nc1nc(Nc2cc3c(cc2OC)CCCN3C(=O)CN(C)C)nc2[nH]ccc12 [GSK2220400A] | 81
19 | CCn1c(-c2nonc2N)nc2c(C#CC(C)(C)O)nc(OCCNC)cc21 [GSK949675A] | 74
20 | NC(=O)c1ccc(Oc2nccc(-c3c(-c4ccc(F)cc4)ncn3C3CCNCC3)n2)cc1 [SB-242718] | 69
21 | COc1c(C(N)=O)cc(-c2ccc(Cl)cc2)cc1-c1ccc(S(N)(=O)=O)cc1 [GSK711701A] | 93

target: E. coli MurD (Escherichia coli, UniProt P14900); assay: biochemical; details: 0.25 h, Table S1, PKIS screening; read-out: RA [%] at 100 µM MurD
Sequence (P14900 whole entry): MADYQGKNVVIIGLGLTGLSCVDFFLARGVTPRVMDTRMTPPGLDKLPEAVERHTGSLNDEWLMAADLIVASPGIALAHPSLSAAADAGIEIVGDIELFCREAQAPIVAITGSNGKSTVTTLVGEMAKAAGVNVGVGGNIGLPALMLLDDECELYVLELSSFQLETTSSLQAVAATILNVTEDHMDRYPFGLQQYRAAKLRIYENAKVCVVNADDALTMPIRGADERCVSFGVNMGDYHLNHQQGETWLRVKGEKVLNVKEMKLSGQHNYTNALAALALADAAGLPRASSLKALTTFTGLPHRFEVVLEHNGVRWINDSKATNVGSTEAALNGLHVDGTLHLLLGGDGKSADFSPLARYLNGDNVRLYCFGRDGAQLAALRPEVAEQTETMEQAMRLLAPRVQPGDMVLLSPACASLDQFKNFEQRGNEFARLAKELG
Experimental: as §1, §2
The published kinase inhibitor set compounds were evaluated for inhibition of MurC, D and F ligases from E. coli using the Malachite green assay, which detects orthophosphate generated during enzymatic reactions. To avoid non-specific inhibition due to aggregate formation, all of the compounds were tested in the presence of detergent (0.005% Triton-X114). The data are presented as the residual activities of these Mur ligases in the presence of 100 µM of each test compound (Supporting Information Table S1).

Row | Structure (SMILES) | remaining activity at 100 µM [%]
22 | COc1cc(N2CCN(C(C)C)CC2)ccc1Nc1nc(Nc2cccc(F)c2C(=O)O)c2cc[nH]c2n1 [GSK1819799A] | 37
23 | CS(=O)(=O)Nc1cccc(-c2ccc3c(NC(=O)C4CC4)n[nH]c3c2)c1 [SB-742864] | 88
24 | Nc1ncc(-c2cccc(S(N)(=O)=O)c2)c2scc(-c3ccc(F)c(Cl)c3)c12 [GW856804X] | 75
25 | CC(C)c1ccc(Nc2nccc(-c3cnn4ncccc34)n2)cc1 [GW805758X] | 57
26 | Nc1nccc(C#Cc2cncnc2Nc2ccc(OCc3cccc(F)c3)c(Cl)c2)n1 [GW799251X] | 50
27 | COc1cc(N2CCN(C(C)C)CC2)ccc1Nc1nc(Nc2ccc(F)cc2C(N)=O)c2cc[nH]c2n1 [GSK1220512A] | 48
28 | CS(=O)(=O)CCNCc1cc(-c2cc3c(Nc4ccc(OCc5cccc(F)c5)c(Cl)c4)ncnc3s2)cs1 [GSK300014A] | 91
29 | N#Cc1ccc2c(-c3ccnc(NC4CC4)n3)c(-c3ccc(F)cc3)nn2c1 [GW561436X] | 76
30 | C[C@@H](Oc1cc(-n2cnc3ccc(OC4CCN(C)CC4)cc32)sc1C(N)=O)c1ccccc1Cl [GSK579289A] | 70
31 | Cc1cc(O)cc(C)c1/C=C/c1cncc(-c2nn[nH]n2)c1 [GW441806A] | 91
32 | CCN(CC)Cc1ccc(Nc2nccc(-c3cnn4ncccc34)n2)cc1 [GW780056X] | 78
33 | COc1ccc2ncn(-c3cc(O[C@H](C)c4ccccc4C(F)(F)F)c(C(N)=O)s3)c2c1 [GSK317315A] | 47
34 | NC(=O)c1ccc2c(-c3ccnc(NCCCO)n3)c(-c3ccc(F)cc3)nn2c1 [GW581744X] | 74
35 | CCS(=O)(=O)c1ccc(OC)c(Nc2ncc(-c3cccc(-c4ccccc4F)c3)o2)c1 [GW678313X] | 64
36 | COc1cc2ncn(-c3cc(OCc4ccccc4C(F)(F)F)c(C(N)=O)s3)c2cc1OC [GW843682X] | 82
37 | COc1cc2c(cc1Nc1nc(Nc3cccc(F)c3C(N)=O)c3cc[nH]c3n1)N(C(=O)CN1CCN(C(C)C)CC1)CC2 [GSK1751853A] | 74
38 | CC(C)c1ccc(-c2cc(-c3c[nH]nc3-c3ccccn3)ccn2)cc1 [GW682841X] | 85
39 | CNC(=O)c1ncccc1Nc1nc(Nc2cc3c(cc2OC)CCCN3C(=O)CN(C)C)nc2[nH]ccc12 [GSK2220400A] | 84
40 | CCn1c(-c2nonc2N)nc2c(C#CC(C)(C)O)nc(OCCNC)cc21 [GSK949675A] | 85
41 | NC(=O)c1ccc(Oc2nccc(-c3c(-c4ccc(F)cc4)ncn3C3CCNCC3)n2)cc1 [SB-242718] | 65
42 | COc1c(C(N)=O)cc(-c2ccc(Cl)cc2)cc1-c1ccc(S(N)(=O)=O)cc1 [GSK711701A] | 99

target: E. coli MurC (Escherichia coli, UniProt P17952); assay: Malachite green inhibition assay, MurC; type: biochemical; details: 0.25 h, Table S1, PKIS screening; read-out: RA [%] at 100 µM MurC
Sequence (P17952 whole entry): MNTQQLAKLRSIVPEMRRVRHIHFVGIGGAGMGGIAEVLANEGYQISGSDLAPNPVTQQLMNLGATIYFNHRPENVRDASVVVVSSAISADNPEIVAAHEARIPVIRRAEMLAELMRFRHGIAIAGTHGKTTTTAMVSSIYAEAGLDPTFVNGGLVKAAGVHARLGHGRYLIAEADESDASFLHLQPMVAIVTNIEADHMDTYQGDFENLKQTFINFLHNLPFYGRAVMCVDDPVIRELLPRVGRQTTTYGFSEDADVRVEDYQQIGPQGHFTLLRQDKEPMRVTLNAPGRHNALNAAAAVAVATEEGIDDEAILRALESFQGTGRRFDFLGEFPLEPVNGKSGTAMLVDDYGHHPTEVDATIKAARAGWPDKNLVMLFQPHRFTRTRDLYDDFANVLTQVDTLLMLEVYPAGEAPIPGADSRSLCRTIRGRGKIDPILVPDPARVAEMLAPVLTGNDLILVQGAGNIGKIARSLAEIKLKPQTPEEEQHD
Experimental: as §1, §2, §3

Row | Structure (SMILES) | remaining activity at 100 µM [%]
43 | COc1cc(N2CCN(C(C)C)CC2)ccc1Nc1nc(Nc2cccc(F)c2C(=O)O)c2cc[nH]c2n1 [GSK1819799A] | 0
44 | CS(=O)(=O)Nc1cccc(-c2ccc3c(NC(=O)C4CC4)n[nH]c3c2)c1 [SB-742864] | 64
45 | Nc1ncc(-c2cccc(S(N)(=O)=O)c2)c2scc(-c3ccc(F)c(Cl)c3)c12 [GW856804X] | 64
46 | CC(C)c1ccc(Nc2nccc(-c3cnn4ncccc34)n2)cc1 [GW805758X] | 64
47 | Nc1nccc(C#Cc2cncnc2Nc2ccc(OCc3cccc(F)c3)c(Cl)c2)n1 [GW799251X] | 33
48 | CS(=O)(=O)CCNCc1cc(-c2cc3c(Nc4ccc(OCc5cccc(F)c5)c(Cl)c4)ncnc3s2)cs1 [GSK300014A] | 88
49 | N#Cc1ccc2c(-c3ccnc(NC4CC4)n3)c(-c3ccc(F)cc3)nn2c1 [GW561436X] | 87
50 | C[C@@H](Oc1cc(-n2cnc3ccc(OC4CCN(C)CC4)cc32)sc1C(N)=O)c1ccccc1Cl [GSK579289A] | 67
51 | Cc1cc(O)cc(C)c1/C=C/c1cncc(-c2nn[nH]n2)c1 [GW441806A] | 70
52 | CCN(CC)Cc1ccc(Nc2nccc(-c3cnn4ncccc34)n2)cc1 [GW780056X] | 78
53 | COc1ccc2ncn(-c3cc(O[C@H](C)c4ccccc4C(F)(F)F)c(C(N)=O)s3)c2c1 [GSK317315A] | 53
54 | NC(=O)c1ccc2c(-c3ccnc(NCCCO)n3)c(-c3ccc(F)cc3)nn2c1 [GW581744X] | 73
55 | CCS(=O)(=O)c1ccc(OC)c(Nc2ncc(-c3cccc(-c4ccccc4F)c3)o2)c1 [GW678313X] | 87
56 | COc1cc2ncn(-c3cc(OCc4ccccc4C(F)(F)F)c(C(N)=O)s3)c2cc1OC [GW843682X] | 65
57 | COc1cc2c(cc1Nc1nc(Nc3cccc(F)c3C(N)=O)c3cc[nH]c3n1)N(C(=O)CN1CCN(C(C)C)CC1)CC2 [GSK1751853A] | 55
58 | CC(C)c1ccc(-c2cc(-c3c[nH]nc3-c3ccccn3)ccn2)cc1 [GW682841X] | 78
59 | CCn1c(-c2nonc2N)nc2c(C#CC(C)(C)O)nc(OCCNC)cc21 [GSK949675A] | 73
60 | NC(=O)c1ccc(Oc2nccc(-c3c(-c4ccc(F)cc4)ncn3C3CCNCC3)n2)cc1 [SB-242718] | 39
61 | COc1c(C(N)=O)cc(-c2ccc(Cl)cc2)cc1-c1ccc(S(N)(=O)=O)cc1 [GSK711701A] | 100

same assay, conditions: 0.25 h, read-out: RA [%] at 100 µM MurC, Table S1, PKIS screening

Row | Structure (SMILES) | remaining activity at 100 µM [%]
62 | COc1cc(N2CCN(C(C)C)CC2)ccc1Nc1nc(Nc2ccc(F)cc2C(N)=O)c2cc[nH]c2n1 [GSK1220512A] | 2
63 | CNC(=O)c1ncccc1Nc1nc(Nc2cc3c(cc2OC)CCCN3C(=O)CN(C)C)nc2[nH]ccc12 [GSK2220400A] | 69
